From PubChem BioAssay AID1745844 (Carcinogenic Potency Database (CPDB), 2022)
Activity calls are given as the source filed them. The rule behind the calls is not given here.

Test system: rodent lifetime carcinogenesis bioassay, tumor incidence TD50
Assay: carcinogenic potency in animals, long-term in vivo studies, CPDB compilation (AID 1745844)

Which carcinogen call (mouse, strain B6C3F1, females, in feed, site: any site (literature study), lesion: several types, types named in the paper, dosed 103 weeks, study length 103 weeks) does the source give for `Brc1c(Br)c(Br)c(Oc2c(Br)c(Br)c(Br)c(Br)c2Br)c(Br)c1Br` here?
Its carcinogen call is “negative (inactive)”.

What about the TD50 (mouse, strain B6C3F1, females, in feed, site: liver, lesion: hepatocellular adenoma + hepatocellular carcinoma + neoplastic nodule, dosed 103 weeks, study length 103 weeks) of the same compound?
Its TD50 is 33400 mg/kg/day.

And the TD50 (mouse, strain B6C3F1, males, in feed, site: any site (literature study), lesion: several types, types named in the paper, dosed 103 weeks, study length 103 weeks)?
Its TD50 is 9060 mg/kg/day.

And the TD50 (mouse, strain B6C3F1, males, in feed, site: liver, lesion: hepatocellular adenoma + hepatocellular carcinoma + neoplastic nodule, dosed 103 weeks, study length 103 weeks)?
Its TD50 is 11200 mg/kg/day.

And the TD50 (mouse, strain B6C3F1, males, in feed, site: liver, lesion: hepatocellular adenoma + hepatocellular carcinoma, dosed 103 weeks, study length 103 weeks)?
Its TD50 is 11200 mg/kg/day.

What about the TD50 (mouse, strain B6C3F1, males, in feed, site: thyroid gland, lesion: follicular-cell adenoma + follicular-cell carcinoma, dosed 103 weeks, study length 103 weeks) of the same compound?
Its TD50 is 20500 mg/kg/day.

And the TD50 (rat, strain Fischer 344, females, in feed, site: any site (literature study), lesion: several types, types named in the paper, dosed 103 weeks, study length 104 weeks)?
Its TD50 is 4380 mg/kg/day.

And the TD50 (rat, strain Fischer 344, females, in feed, site: liver, lesion: hepatocellular adenoma + hepatocellular carcinoma + neoplastic nodule, dosed 103 weeks, study length 104 weeks)?
Its TD50 is 6580 mg/kg/day.

And the TD50 (rat, strain Fischer 344, females, in feed, site: liver, lesion: hepatocellular carcinoma + neoplastic nodule, dosed 103 weeks, study length 104 weeks)?
Its TD50 is 6580 mg/kg/day.

And the TD50 (rat, strain Fischer 344, females, in feed, site: liver, lesion: neoplastic nodule, dosed 103 weeks, study length 104 weeks)?
Its TD50 is 7740 mg/kg/day.

What about the TD50 (rat, strain Fischer 344, males, in feed, site: any site (literature study), lesion: several types, types named in the paper, dosed 103 weeks, study length 104 weeks) of the same compound?
Its TD50 is 2230 mg/kg/day.

And the TD50 (rat, strain Fischer 344, males, in feed, site: liver, lesion: hepatocellular adenoma + hepatocellular carcinoma + neoplastic nodule, dosed 103 weeks, study length 104 weeks)?
Its TD50 is 2220 mg/kg/day.

And the TD50 (rat, strain Fischer 344, males, in feed, site: liver, lesion: hepatocellular carcinoma + neoplastic nodule, dosed 103 weeks, study length 104 weeks)?
Its TD50 is 2220 mg/kg/day.

And the TD50 (rat, strain Fischer 344, males, in feed, site: liver, lesion: neoplastic nodule, dosed 103 weeks, study length 104 weeks)?
Its TD50 is 2130 mg/kg/day.

And the TD50 (rat, strain Fischer 344, males, in feed, site: pancreas, lesion: acinar-cell adenoma, dosed 103 weeks, study length 104 weeks)?
Its TD50 is 13900 mg/kg/day.

What about the TD50 (rat, strain Sprague-Dawley Spartan, females, in feed, site: any site (literature study), lesion: several types, types named in the paper, dosed 105 weeks, study length 105 weeks) of the same compound?
Its TD50 is 0.987 mg/kg/day (inactive).

And the carcinogen call (rat, strain Sprague-Dawley Spartan, females, in feed, site: liver, lesion: hepatocellular tumor, dosed 105 weeks, study length 105 weeks)?
The carcinogen call was “negative (inactive)”.

And the carcinogen call (rat, strain Sprague-Dawley Spartan, males, in feed, site: any site (literature study), lesion: several types, types named in the paper, dosed 100 weeks, study length 100 weeks)?
The carcinogen call was “negative (inactive)”.

And the carcinogen call (rat, strain Sprague-Dawley Spartan, males, in feed, site: liver, lesion: hepatocellular tumor, dosed 100 weeks, study length 100 weeks)?
Its carcinogen call is “negative (inactive)”.

Which results are given for `Nc1ncn([C@@H]2O[C@H](CO)[C@@H](O)[C@H]2O)c(=O)n1`?
TD50 (mouse, strain B6C3F1, females, i.p., site: all sites + multiple organs, lesion: lymphoma + granulocytic leukemia + granulocytic sarcoma, dosed 52 weeks, study length 81 weeks): 0.256 mg/kg/day; TD50 (mouse, strain B6C3F1, females, i.p., site: all sites, lesion: lymphoma, dosed 52 weeks, study length 81 weeks): 0.615 mg/kg/day; TD50 (mouse, strain B6C3F1, females, i.p., site: any site (literature study), lesion: several types, types named in the paper, dosed 52 weeks, study length 81 weeks): 0.219 mg/kg/day; TD50 (mouse, strain B6C3F1, females, i.p., site: multiple organs, lesion: granulocytic leukemia + granulocytic sarcoma, dosed 52 weeks, study length 81 weeks): 0.52 mg/kg/day; TD50 (mouse, strain B6C3F1, males, i.p., site: any site (literature study), lesion: several types, types named in the paper, dosed 52 weeks, study length 81 weeks): 1.05 mg/kg/day; TD50 (mouse, strain B6C3F1, males, i.p., site: liver, lesion: hepatocellular adenoma + hepatocellular carcinoma + neoplastic nodule, dosed 52 weeks, study length 81 weeks): 15.7 mg/kg/day; TD50 (mouse, strain B6C3F1, males, i.p., site: lung, lesion: alveolar/bronchiolar adenoma + alveolar/bronchiolar carcinoma, dosed 52 weeks, study length 81 weeks): 61.4 mg/kg/day; TD50 (mouse, strain BALB/c, females, i.p., site: any site (literature study), lesion: one or several types, types not named, dosed 50 weeks, study length 72 weeks): 0.0364 mg/kg/day; TD50 (mouse, strain BALB/c, females, i.p., site: lymphoreticular system, lesion: several types, types named in the paper, dosed 50 weeks, study length 72 weeks): 0.0569 mg/kg/day; TD50 (mouse, strain BALB/c, females, i.p., site: mammary gland, lesion: adenocarcinoma, type B, dosed 50 weeks, study length 72 weeks): 0.618 mg/kg/day; TD50 (mouse, strain BALB/c, females, i.p., site: mammary gland, lesion: several types, types named in the paper, dosed 50 weeks, study length 72 weeks): 0.432 mg/kg/day; TD50 (mouse, strain BALB/c, females, i.p., site: skin, lesion: several types, types named in the paper, dosed 50 weeks, study length 72 weeks): 0.499 mg/kg/day; TD50 (mouse, strain BALB/c, males, i.p., site: any site (literature study), lesion: one or several types, types not named, dosed 50 weeks, study length 67 weeks): 0.0539 mg/kg/day; TD50 (mouse, strain BALB/c, males, i.p., site: liver, lesion: hepatocellular adenoma, dosed 50 weeks, study length 67 weeks): 1.49 mg/kg/day; TD50 (mouse, strain BALB/c, males, i.p., site: lung, lesion: adenoma, dosed 50 weeks, study length 67 weeks): 0.121 mg/kg/day; TD50 (mouse, strain BALB/c, males, i.p., site: lymphoreticular system, lesion: several types, types named in the paper, dosed 50 weeks, study length 67 weeks): 0.285 mg/kg/day; TD50 (mouse, strain BALB/c, males, i.p., site: skin, lesion: several types, types named in the paper, dosed 50 weeks, study length 67 weeks): 0.98 mg/kg/day; TD50 (rat, strain Fischer 344, males, i.p., site: any site (literature study), lesion: one or several types, types not named, dosed 52 weeks, study length 52 weeks): 0.17 mg/kg/day; TD50 (rat, strain Fischer 344, males, i.p., site: testis, lesion: one or several types, types not named, dosed 52 weeks, study length 52 weeks): 0.222 mg/kg/day; TD50 (rat, strain Sprague-Dawley, females, i.p., site: any site (literature study), lesion: several types, types named in the paper, dosed 34 weeks, study length 80 weeks): 0.487 mg/kg/day; TD50 (rat, strain Sprague-Dawley, males, i.p., site: any site (literature study), lesion: several types, types named in the paper, dosed 34 weeks, study length 80 weeks): 0.328 mg/kg/day
